From US10323026B2, “Heterocyclic compound” (Takeda Pharmaceutical Company Limited, priority 2016, dated 2019)

target: T1, His-hMAGL (recombinant polyhistidine tagged human MAGL protein) (Homo sapiens, UniProt Q99685); test: Measurement of MAGL inhibitory activity (RapidFire-mass spectrometry of arachidonic acid produced from 2-arachidonylglycerol); assay type: biochemical; conditions: test compound 10 μM; His-hMAGL; substrate 2-arachidonylglycerol; 60 min preincubation
T1 construct: polyhistidine (His) (N); made in house; host or cells: E. coli BL21(DE3)
T1 sequence (Q99685 1-303): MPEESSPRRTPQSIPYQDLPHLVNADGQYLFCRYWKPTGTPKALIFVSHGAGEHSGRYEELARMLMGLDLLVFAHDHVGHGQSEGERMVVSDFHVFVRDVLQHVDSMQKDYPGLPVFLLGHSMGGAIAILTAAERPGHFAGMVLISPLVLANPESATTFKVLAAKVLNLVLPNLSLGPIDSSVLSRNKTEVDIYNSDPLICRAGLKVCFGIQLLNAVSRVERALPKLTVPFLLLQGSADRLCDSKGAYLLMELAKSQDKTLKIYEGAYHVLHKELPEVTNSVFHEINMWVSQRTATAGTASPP
Protocol: Furthermore, acetonitrile (50 μL) containing 3 μM arachidonic acid-d8 (Cayman Chemical Company) was added and the mixture was stirred.
The amount of arachidonic acid in the obtained enzyme reaction mixture was calculated by measuring by RapidFire-mass spectrometry and correcting by the amount of arachidonic acid-d8. High Throughput online solid phase extraction was performed using RapidFire 300™ system (Agilent Technologies, Inc.). Samples were loaded on SPE C4 cartridge (Agilent Technologies, Inc.) and desalted with 0.2 (v/v) % acetic acid (Wako Pure Chemical Industries, Ltd.) in ultrapure water/acetonitrile (70/30, v/v) at a flow rate of 1.5 mL/min, eluted at a flow rate of 0.5 mL/min with 0.2(v/v) % acetic acid dissolved in acetonitrile/ultrapure water (90/10, v/v), and injected into the mass spectrometry part. The injection needle was washed with ultrapure water (500 millisecond) and acetonitrile (500 millisecond) to minimize carry-over. […] The RapidFire300 system was controlled by RapidFire UI software version 3.6 (Agilent Technologies, Inc.).
The mass spectrometry of the resultant product was performed using API4000™ triple quadrupole mass spectrometer (AB SCIEX) equipped with an electrospray ion source (TurboIon Spray™) in a negative selected reaction monitoring (SRM) mode. The conditions of SRM are shown below. The parameters of the instrument were optimized as follows: capillary temperature 600° C., ion spray voltage −4.5 kV, collision gas 8, curtain gas 15 psi, ion source gas 1 60 psi, ion source gas 2 60 psi. The mass spectrometer was controlled by Analyst™ software version 1.5.1 (AB SCIEX). The peak area integration was analyzed using RapidFire integrator software version 3.6 (Agilent Technologies, Inc.).
MAGL inhibitory rate (%) was calculated according to the following calculation formula. (1-(arachidonic acid production amount of test compound addition group−arachidonic acid production amount of enzyme-free group)÷(arachidonic acid production amount of test compound-free group−arachidonic acid production amount of enzyme-free group))×100

Row | Structure (SMILES) | % inhibition (10 μM) [%]
1 | Cc1ccc(OC(C)C2CCN(C(=O)[C@H]3C[C@]4(COC(=O)N4)C3)CC2)c(F)c1 (some centres unmarked) [Example 45, (2s,4s)-2-((4-(1-(2-fluoro-4-methylphenoxy)ethyl)piperidin-1-yl)carbonyl)-7-oxa-5-azaspiro[3.4]octan-6-one] | 100
2 | Cc1ccc(OC(C)C2CCN(C(=O)[C@H]3C[C@]4(COC(=O)N4)C3)CC2)c(F)c1 (some centres unmarked) [Example 46, (2s,4s)-2-((4-(1-(2-fluoro-4-methylphenoxy)ethyl)piperidin-1-yl)carbonyl)-7-oxa-5-azaspiro[3.4]octan-6-one] | 100

same assay, conditions: test compound 10 μM; His-hMAGL; substrate 2-arachidonylglycerol; 60 min preincubation; 10 µM

Row | Structure (SMILES) | % inhibition (10 μM) [%]
3 | Cc1cc(F)ccc1OC(C)C1CCN(C(=O)[C@H]2C[C@]3(COC(=O)N3)C2)CC1 (some centres unmarked) [Example 33, (2s,4s)-2-((4-(1-(4-fluoro-2-methylphenoxy)ethyl)piperidin-1-yl)carbonyl)-7-oxa-5-azaspiro[3.4]octan-6-one] | 101
4 | CC(Oc1ccc(Cl)cc1F)C1CCN(C(=O)[C@H]2C[C@]3(COC(=O)N3)C2)CC1 (some centres unmarked) [Example 31, (2s,4s)-2-((4-(1-(4-chloro-2-fluorophenoxy)ethyl)piperidin-1-yl)carbonyl)-7-oxa-5-azaspiro[3.4]octan-6-one] | 101

same assay, conditions: test compound 10 μM; His-hMAGL; substrate 2-arachidonylglycerol; 60 min preincubation; read-out: % inhibition (10 μM)

Row | Structure (SMILES) | inhibition at 10 µM [%]
5 | O=C1N[C@]2(CO1)C[C@H](C(=O)N1CC(OCc3ccc(C(F)(F)F)c(F)c3F)C1)C2 [Example 96, (2s,4s)-2-((3-((2,3-difluoro-4-(trifluoromethyl)benzyl)oxy)azetidin-1-yl)carbonyl)-7-oxa-5-azaspiro[3.4]octan-6-one] | 100
6 | O=C1N[C@]2(CO1)C[C@H](C(=O)N1CC(COc3ccc(Cl)cc3Cl)C1)C2 [Example 79, (2s,4s)-2-((3-((2,4-dichlorophenoxy)methyl)azetidin-1-yl)carbonyl)-7-oxa-5-azaspiro[3.4]octan-6-one] | 100
7 | O=C1N[C@]2(CO1)C[C@H](C(=O)N1CC(COc3cc(C(F)(F)F)cc(C(F)(F)F)c3)C1)C2 [Example 83, (2s,4s)-2-((3-((3,5-bis(trifluoromethyl)phenoxy)methyl)azetidin-1-yl)carbonyl)-7-oxa-5-azaspiro[3.4]octan-6-one] | 100
8 | O=C1N[C@]2(CO1)C[C@H](C(=O)N1CCC(C(c3ccccc3)c3ccccc3)CC1)C2 [Example 50, (2s,4s)-2-((4-(diphenylmethyl)piperidin-1-yl)carbonyl)-7-oxa-5-azaspiro[3.4]octan-6-one] | 101
9 | O=C1N[C@]2(CO1)C[C@H](C(=O)N1CC(/C=C(\F)c3ccc(C(F)(F)F)c(Cl)c3)C1)C2 [Example 111, (2s,4s)-2-((3-((Z)-2-(3-chloro-4-(trifluoromethyl)phenyl)-2-fluorovinyl)azetidin-1-yl)carbonyl)-7-oxa-5-azaspiro[3.4]octan-6-one] | 100
10 | O=C1N[C@]2(CO1)C[C@H](C(=O)N1CC(CC(F)(F)c3ccc(C(F)(F)F)c(F)c3F)C1)C2 [Example 103, (2s,4s)-2-((3-(2-(2,3-difluoro-4-(trifluoromethyl)phenyl)-2,2-difluoroethyl)azetidin-1-yl)carbonyl)-7-oxa-5-azaspiro[3.4]octan-6-one] | 100
11 | Cc1ccc(OC(C)C2CCN(C(=O)[C@H]3C[C@]4(COC(=O)N4)C3)CC2)c(F)c1 (some centres unmarked) [Example 28, (2s,4s)-2-((4-(1-(2-fluoro-4-methylphenoxy)ethyl)piperidin-1-yl)carbonyl)-7-oxa-5-azaspiro[3.4]octan-6-one] | 100
12 | CC(Oc1c(F)ccc(F)c1F)C1CCN(C(=O)[C@H]2C[C@]3(COC(=O)N3)C2)CC1 (some centres unmarked) [Example 36, (2s,4s)-2-((4-(1-(2,3,6-trifluorophenoxy)ethyl)piperidin-1-yl)carbonyl)-7-oxa-5-azaspiro[3.4]octan-6-one] | 101
13 | Cc1cc(Cl)ccc1COC1CN(C(=O)[C@H]2C[C@]3(COC(=O)N3)C2)C1 [Example 92, (2s,4s)-2-((3-((4-chloro-2-methylbenzyl)oxy)azetidin-1-yl)carbonyl)-7-oxa-5-azaspiro[3.4]octan-6-one] | 100
14 | O=C1N[C@]2(CO1)C[C@H](C(=O)N1CC(COc3c(Cl)cc(F)cc3Cl)C1)C2 [Example 75, (2s,4s)-2-((3-((2,6-dichloro-4-fluorophenoxy)methyl)azetidin-1-yl)carbonyl)-7-oxa-5-azaspiro[3.4]octan-6-one] | 100
15 | CCc1cc(OCC2CN(C(=O)[C@H]3C[C@]4(COC(=O)N4)C3)C2)c(F)cc1C(F)(F)F [Example 86, (2s,4s)-2-((3-((5-ethyl-2-fluoro-4-(trifluoromethyl)phenoxy)methyl)azetidin-1-yl)carbonyl)-7-oxa-5-azaspiro[3.4]octan-6-one] | 100
16 | CC1(C2CCN(C(=O)[C@H]3C[C@]4(COC(=O)N4)C3)CC2)Cc2cc(F)ccc2O1 (some centres unmarked) [Example 4, (2s,4s)-2-((4-(5-fluoro-2-methyl-2,3-dihydro-1-benzofuran-2-yl)piperidin-1-yl)carbonyl)-7-oxa-5-azaspiro[3.4]octan-6-one] | 100
17 | CC(Oc1ccc(Cl)cc1F)C1CCN(C(=O)[C@H]2C[C@]3(COC(=O)N3)C2)CC1 (some centres unmarked) [Example 18, (2s,4s)-2-((4-(1-(4-chloro-2-fluorophenoxy)ethyl)piperidin-1-yl)carbonyl)-7-oxa-5-azaspiro[3.4]octan-6-one] | 101
18 | CC(c1ccccc1)(c1ccccc1)C1CCN(C(=O)[C@H]2C[C@]3(COC(=O)N3)C2)CC1 [Example 51, (2s,4s)-2-((4-(1,1-diphenylethyl)piperidin-1-yl)carbonyl)-7-oxa-5-azaspiro[3.4]octan-6-one] | 101
19 | O=C1N[C@]2(CO1)C[C@H](C(=O)N1CC(CC(F)(F)c3ccc(C(F)(F)F)cc3F)C1)C2 [Example 91, (2s,4s)-2-((3-(2,2-difluoro-2-(2-fluoro-4-(trifluoromethyl)phenyl)ethyl)azetidin-1-yl)carbonyl)-7-oxa-5-azaspiro[3.4]octan-6-one] | 100
20 | Cc1cc(COCC2CN(C(=O)[C@H]3C[C@]4(COC(=O)N4)C3)C2)ccc1Cl [Example 121, (2s,4s)-2-((3-(((4-chloro-3-methylbenzyl)oxy)methyl)azetidin-1-yl)carbonyl)-7-oxa-5-azaspiro[3.4]octan-6-one] | 101
21 | CC(Oc1ccc(F)c(F)c1F)C1CCN(C(=O)[C@H]2C[C@]3(COC(=O)N3)C2)CC1 (some centres unmarked) [Example 80, (2s,4s)-2-((4-(1-(2,3,4-trifluorophenoxy)ethyl)piperidin-1-yl)carbonyl)-7-oxa-5-azaspiro[3.4]octan-6-one] | 101
22 | O=C1N[C@]2(CO1)C[C@H](C(=O)N1CC(OCc3ccc(OC(F)(F)F)c(Cl)c3)C1)C2 [Example 116, (2s,4s)-2-((3-((3-chloro-4-(trifluoromethoxy)benzyl)oxy)azetidin-1-yl)carbonyl)-7-oxa-5-azaspiro[3.4]octan-6-one] | 100
23 | O=C1N[C@]2(CO1)C[C@H](C(=O)N1CCC(OCc3ccc(Cl)cc3Cl)CC1)C2 [Example 24, (2s,4s)-2-((4-((2,4-dichlorobenzyl)oxy)piperidin-1-yl)carbonyl)-7-oxa-5-azaspiro[3.4]octan-6-one] | 100
24 | Cc1ccc(OCC2CCN(C(=O)[C@H]3C[C@]4(COC(=O)N4)C3)CC2)c(F)c1 [Example 23, (2s,4s)-2-((4-((2-fluoro-4-methylphenoxy)methyl)piperidin-1-yl)carbonyl)-7-oxa-5-azaspiro[3.4]octan-6-one] | 100
25 | Cc1ccc(COCC2CN(C(=O)[C@H]3C[C@]4(COC(=O)N4)C3)C2)cc1Cl [Example 120, (2s,4s)-2-((3-(((3-chloro-4-methylbenzyl)oxy)methyl)azetidin-1-yl)carbonyl)-7-oxa-5-azaspiro[3.4]octan-6-one] | 100
26 | O=C1N[C@]2(CO1)C[C@H](C(=O)N1CC(CC(F)(F)c3ccc(C(F)(F)F)cc3Cl)C1)C2 [Example 117, (2s,4s)-2-((3-(2-(2-chloro-4-(trifluoromethyl)phenyl)-2,2-difluoroethyl)azetidin-1-yl)carbonyl)-7-oxa-5-azaspiro[3.4]octan-6-one] | 100
